# Read-outs that look alike come from different tables or passages of the source.
# What was measured:
# [1] = molecular target: T1, Human cytomegalovirus DNA polymerase (Human cytomegalovirus, UniProt P08546); test: HCMV polymerase assay (AlphaLISA); format: biochemical; conditions: HCMV DNA polymerase 0.2 nM, 60 minutes at 37° C.; read-out: CMV (IC50)
# T1 construct: made in house; host or cells: SF21 insect cells (baculovirus vector)
# Summary of the method: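 Baculovirus/SF21-expressed polymerase (HCMV 0.2 nM; VZV 0.4 nM) pre-incubated 30 min at room temperature with compound in HEPES pH 7.5 buffer, then 60 min at 37 °C with 1.6 nM DIG-primer/template, sub-nM to 24 nM dNTPs and 0.8 nM biotin-dUTP. AlphaLISA detection; IC50 from 4-parameter fit.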
# [2] = molecular target: T2, varicella zoster virus DNA polymerase (Varicella-zoster virus, UniProt P09252); test: VZV polymerase assay (AlphaLISA); format: biochemical; conditions: VZV DNA polymerase 0.4 nM, 60 minutes at 37° C.
# T2 construct: made in house; host or cells: SF21 insect cells (baculovirus vector)
# T2 sequence (P09252 whole entry): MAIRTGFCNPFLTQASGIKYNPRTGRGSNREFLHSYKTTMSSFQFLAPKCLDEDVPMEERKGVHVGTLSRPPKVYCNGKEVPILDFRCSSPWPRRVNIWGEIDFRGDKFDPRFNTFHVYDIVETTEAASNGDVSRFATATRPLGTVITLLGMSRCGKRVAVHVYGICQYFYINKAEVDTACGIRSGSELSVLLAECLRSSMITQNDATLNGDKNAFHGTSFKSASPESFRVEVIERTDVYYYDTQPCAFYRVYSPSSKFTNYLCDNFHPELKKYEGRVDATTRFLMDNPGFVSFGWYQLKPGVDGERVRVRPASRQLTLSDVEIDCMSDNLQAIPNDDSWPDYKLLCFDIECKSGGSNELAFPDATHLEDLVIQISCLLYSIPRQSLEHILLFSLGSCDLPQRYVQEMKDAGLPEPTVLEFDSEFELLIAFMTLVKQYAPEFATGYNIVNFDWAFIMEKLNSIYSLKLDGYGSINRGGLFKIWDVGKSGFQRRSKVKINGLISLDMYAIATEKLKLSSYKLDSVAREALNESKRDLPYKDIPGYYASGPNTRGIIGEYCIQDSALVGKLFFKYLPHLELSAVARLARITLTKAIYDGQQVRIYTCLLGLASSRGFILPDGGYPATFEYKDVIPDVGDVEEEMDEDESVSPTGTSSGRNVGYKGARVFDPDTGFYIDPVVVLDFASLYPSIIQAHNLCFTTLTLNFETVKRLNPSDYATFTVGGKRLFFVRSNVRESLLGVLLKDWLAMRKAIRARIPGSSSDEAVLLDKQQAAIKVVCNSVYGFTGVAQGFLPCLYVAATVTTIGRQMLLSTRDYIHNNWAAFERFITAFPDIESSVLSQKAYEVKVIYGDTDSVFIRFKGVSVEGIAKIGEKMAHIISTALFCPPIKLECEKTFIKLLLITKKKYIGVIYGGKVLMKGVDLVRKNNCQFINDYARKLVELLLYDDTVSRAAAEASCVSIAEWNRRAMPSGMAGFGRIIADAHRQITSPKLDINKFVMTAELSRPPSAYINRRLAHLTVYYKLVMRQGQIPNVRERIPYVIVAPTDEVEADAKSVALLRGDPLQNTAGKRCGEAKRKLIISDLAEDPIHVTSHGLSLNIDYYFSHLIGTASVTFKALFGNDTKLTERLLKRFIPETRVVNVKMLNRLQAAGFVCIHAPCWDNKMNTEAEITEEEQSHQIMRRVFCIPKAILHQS
# Procedure: Human cytomegalovirus and varicella zoster virus DNA polymerases were expressed via baculovirus vector in SF21 cells and purified. Heterodimeric nucleic acid substrate used in the herpesvirus polymerase reactions was generated by annealing a 59-mer template to a 17-mer digoxigenin-labeled primer. Polymerase (HCMV final concentration of 0.2 nM; VZV final concentration of 0.4 nM) was combined with an inhibitor compound or DMSO in assay buffer (10 mM HEPES, pH 7.5, 25 mM KCl, 25 mM NaCl, 5 mM MgCl2, 5% glycerol, 0.67 mg/ml bovine serum albuminutes, and 1 mM tris(2-carboxyethyl)phosphine), and this mixture was pre-incubated for 30 minutes at room temperature in 384-well microtiter plates. The polymerization reaction was initiated by the addition of template/primer substrate (final concentration: 1.6 nM), and dNTPs (final concentration: 24 nM dCTP, 24 nMdGTP, 16 nM dATP, 16 nM dTTP, and 0.8 nM biotin-dUTP). After 60 minutes incubation at 37° C., reactions were terminated with quench buffer (25 mM HEPES pH 7.5, 100 mM NaCl, 0.25% Tween-20, 12 mM EDTA, and 1 mg/ml bovine serum albumin). Incorporation of biotinylated UTP was detected with 2.5-ug/ml anti-DIG AlphaLISA acceptor beads and 5-10 ug/ml streptavidin AlphaLISA donor beads (Perkin Elmer). Compound effects were normalized to the window defined by the controls (DMSO only and pre-quenched wells) and were fit using a 4-parameter algorithm to report an IC50.
# [3] = tested on: HSV2; test: Viral qPCR assay, HSV2 in Vero cells; format: cell-based, Herpes Simplex Virus type 2; conditions: read-out: HSV2 VERO Cell (EC50)
# Procedure: (§1) MRCS cells, Vero cells, and MeWo cells were obtained from ATCC and were maintained at 37° C./5% CO2/90% relative humidity in Minimal Essential Medium with 10% fetal bovine serum, […] L-glutamine, 100 units/ml penicillin and 100 ug/ml streptomycin. Assay plates were prepared by dispensing compounds dissolved in DMSO into wells of 384 well collagen-coated plates using an ECHO acoustic dispenser. Each compound was tested in a 10-point, serial 3-fold dilution. Controls included uninfected cells and infected cells treated only with DMSO. Assays were initiated by mixing selected cells, in suspension, with virus, and dispensing 50 μl/well infected cells to pre-plated compounds. Plates were incubated at 37° C./5% CO2/90% relative humidity for ˜72 hrs to permit genomic replication, and infected cells were lysed by the addition of an equal volume of lysis buffer (10 mM Tris-HCl, pH8, 50 mM KCl, 2 mM MgCl2, 0.45% NP-40, 0.45% Tween-20, and 100 μg/ml proteinase K). An aliquot of the lysate was transferred to a 384-well PCR plate and incubated at 56° C. for 1 hour and then at 95° C. for 10 min. Levels of a viral gene and of the cellular control, PPIA (Thermo Fisher Assay ID=Hs04194521_s1), were measured in separate 10 μL qPCR assays using TaqMan® Gene Expression Master Mix (Applied Biosystems), and an 7900HT Fast Real-Time PCR System with 384-Well Block Module. 7-point, serial 10-fold dilutions of a plasmid standard were run on each plate to generate a standard curve, and genome copies numbers were calculated by plotting experimental Ct onto linear regression of the standard curve. Viral genome copy numbers were normalized by cellular control copy number, and compound effects were normalized to the window defined by the controls. Calculated % effects were fit using a 4-parameter algorithm, and EC50 was reported.
# as §1, with “gene” for “gene and of the cellular control, PPIA (Thermo Fisher Assay ID=Hs04194521_s1),”, “in” for “in separate”, “Compound effects on viral” for “Viral”, “number” for “numbers were normalized by cellular control copy number, and compound effects”
# [4] = tested on: HSV-1 Strain F; test: Viral qPCR assay, HSV-1 in Vero cells; format: cell-based, Herpes Simplex Virus type 1; conditions: read-out: HSV1 VERO Cell (EC50)
# Procedure: as §1
# as §1, with “gene” for “gene and of the cellular control, PPIA (Thermo Fisher Assay ID=Hs04194521_s1),”, “in” for “in separate”, “Compound effects on viral” for “Viral”, “number” for “numbers were normalized by cellular control copy number, and compound effects”
# VZV: Strain Street was maintained as an infected cell stock in MRC-5 cells. It was assayed in MeWo or MRCS cells and was used at 0.04-0.1 pfu/cell. The assays were performed in growth medium. Primer-probe set was Thermo Fisher Assay ID=AIPAEXQ. HSV-1: Strain F Street was assayed in Vero or MRCS cells and was used at 0.0005-0.004 pfu/cell in growth medium. Primer-probe set was Thermo Fisher Assay ID=AIBJZIB
# [5] = tested on: HCMV Strain AD169; test: Viral qPCR assay, HCMV in MRC-5 cells; format: cell-based, Human cytomegalovirus; conditions: read-out: CMV MRC5 Cell (EC50)
# Summary of the method: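 Viral genome copies, quantified by TaqMan qPCR with a plasmid standard curve after ~72 h infection of MRC-5 cells with AD169 at 0.05-0.1 pfu/cell, served as readout; PPIA normalisation used in one format. Compounds run as 10-point 3-fold series, in standard or 50% FBS media; EC50 by 4-parameter fit.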
# [6] = Human alphaherpesvirus 2, Vero, 72 h
# [7] = Human alphaherpesvirus 1, Vero, 72 h
# [8] = Human betaherpesvirus 5, AD169, MRC5, 72 h
# T1 sequence (P08546 whole entry): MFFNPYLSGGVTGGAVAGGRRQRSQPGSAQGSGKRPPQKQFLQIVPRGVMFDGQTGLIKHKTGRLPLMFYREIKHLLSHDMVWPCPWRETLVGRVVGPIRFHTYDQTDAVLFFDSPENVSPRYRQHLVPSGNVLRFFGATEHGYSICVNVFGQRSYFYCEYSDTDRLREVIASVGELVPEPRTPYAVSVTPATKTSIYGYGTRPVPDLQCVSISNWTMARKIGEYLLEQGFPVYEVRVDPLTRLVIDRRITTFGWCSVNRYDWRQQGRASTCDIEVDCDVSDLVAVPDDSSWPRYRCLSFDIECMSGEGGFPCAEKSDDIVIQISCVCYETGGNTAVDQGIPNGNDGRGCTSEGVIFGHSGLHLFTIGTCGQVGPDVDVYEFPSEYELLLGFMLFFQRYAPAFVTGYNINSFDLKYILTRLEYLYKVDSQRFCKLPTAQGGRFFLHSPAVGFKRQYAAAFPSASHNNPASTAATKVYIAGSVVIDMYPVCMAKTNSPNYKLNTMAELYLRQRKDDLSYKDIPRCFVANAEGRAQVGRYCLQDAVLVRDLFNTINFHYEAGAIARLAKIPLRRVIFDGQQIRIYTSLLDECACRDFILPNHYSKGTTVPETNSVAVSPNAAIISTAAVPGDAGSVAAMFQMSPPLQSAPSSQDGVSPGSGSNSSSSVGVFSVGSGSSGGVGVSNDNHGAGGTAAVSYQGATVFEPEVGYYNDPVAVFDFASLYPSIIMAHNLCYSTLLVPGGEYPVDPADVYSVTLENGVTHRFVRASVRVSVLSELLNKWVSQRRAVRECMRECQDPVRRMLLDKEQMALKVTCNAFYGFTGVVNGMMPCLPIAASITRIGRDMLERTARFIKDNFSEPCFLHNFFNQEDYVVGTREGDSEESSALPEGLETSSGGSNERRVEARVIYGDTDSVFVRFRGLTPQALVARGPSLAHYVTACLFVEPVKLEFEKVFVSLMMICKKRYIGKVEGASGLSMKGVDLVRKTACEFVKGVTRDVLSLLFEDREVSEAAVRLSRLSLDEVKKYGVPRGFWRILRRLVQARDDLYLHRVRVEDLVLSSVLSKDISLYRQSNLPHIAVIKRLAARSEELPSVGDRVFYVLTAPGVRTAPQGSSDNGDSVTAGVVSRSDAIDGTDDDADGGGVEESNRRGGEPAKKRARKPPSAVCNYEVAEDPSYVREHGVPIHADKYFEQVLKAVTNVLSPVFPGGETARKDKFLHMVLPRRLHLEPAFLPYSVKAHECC
Compound,IC50 [1],IC50 [2],"EC50 [3, 6]","EC50 [4, 7]","EC50 [5, 8]",EC50 ([3]; ~72 hrs),EC50 ([4]; ~72 hrs),"EC50 ([5]; MRC5 cells, ~72 hrs)"
CC(C)n1nc(C(=O)NCc2ccc(Cl)cc2)c2c1CN(C[C@H]1CCC(=O)N1)C2 [Compound 35],0.0548 µM,0.031 µM,0.581 µM,1.85 µM,2.67 µM,,,
"O=C1CC[C@H](CC2Cc3c(C(=O)NCc4ccc(Cl)cc4)nn(C4CN(CC5CC5)C4)c3C2)N1 (single isomer, unassigned) [Compound 136]",0.119 µM,0.0165 µM,2.52 µM,3.52 µM,0.98 µM,,,
Cn1nc(C(=O)NCc2ccc(Cl)cc2F)c2c1CN(C[C@H]1CCC(=O)N1)C2 [Compound 61],0.346 µM,0.192 µM,37.7 µM,30.8 µM,1.98 µM,,,
O=C1CC[C@H](CN2Cc3c(C(=O)NCc4ccc(Cl)cc4)nn(CC4(CF)COC4)c3C2)N1 [Compound 41],0.111 µM,0.0237 µM,30.6 µM,20.4 µM,6.32 µM,,,
"CCC1c2c(c(C(=O)NCc3ccc(Cl)cc3)nn2C)CN1CC1CCC(=O)N1 (single isomer, unassigned) [Compound 106]",0.108 µM,0.0305 µM,,,,1.55 µM,1.06 µM,1.17 µM
O=C1CC[C@H](CN2Cc3c(C(=O)NCc4ccc(Cl)cc4)nn(CC4(F)COC4)c3C2)N1 [Compound 37],0.0233 µM,0.0608 µM,23.4 µM,15.5 µM,3.29 µM,,,
"CC1c2c(c(C(=O)NCc3ccc(Cl)cc3)nn2C)CN1C[C@H]1CCC(=O)N1 (single isomer, unassigned) [Compound 107]",4.54 µM,1.51 µM,,,,90.3 µM,73.8 µM,99 µM
O=C1CC[C@H](CC2Cc3c(C(=O)NCc4ccc(Cl)cc4)nn(CCN4CC(F)C4)c3C2)N1 (some centres unmarked) [Compound 132],0.0216 µM,0.0128 µM,9.33 µM,7.16 µM,2.93 µM,,,
O=C1CC[C@H](CN2Cc3c(C(=O)NCc4ccc(Cl)cc4)nn(CC4CCO4)c3C2)N1 (some centres unmarked) [Compound 39],0.0549 µM,0.0452 µM,16.2 µM,12.4 µM,1.58 µM,,,
"Cn1nc(C(=O)NCc2ccc(Cl)cc2)c2c1CC(O)(CC1CCC(=O)N1)C2 (single isomer, unassigned) [Compound 140]",0.0632 µM,0.0265 µM,,,,0.705 µM,0.439 µM,2.66 µM
CN1CC(n2nc(C(=O)NCc3ccc(Cl)cc3)c3c2CC(C[C@H]2CCC(=O)N2)C3)C1 (some centres unmarked) [Compound 137],0.174 µM,0.05 µM,55.7 µM,26.1 µM,7.73 µM,,,
"Cn1nc(C(=O)NCc2ccc(Cl)cc2)c2c1CC(CC1CCC(=O)N1)C2 (single isomer, unassigned) [Compound 130]",0.00444 µM,0.00444 µM,,,,4.12 µM,3.84 µM,1.2 µM
O=C1CCC(CC2Cc3c(C(=O)NCc4ccc(Cl)cc4)nn(CCN4CC(F)(F)C4)c3C2)N1 (centres unmarked) [Compound 131],0.0168 µM,0.0117 µM,7.02 µM,7.29 µM,1.58 µM,,,
CC(C)[C@H]1c2c(c(C(=O)NCc3ccc(Cl)cc3)nn2C)CN1C[C@@H]1CCC(=O)N1 [Compound 100],0.00762 µM,0.00484 µM,0.196 µM,0.217 µM,0.222 µM,,,
CC(C1CC(F)(F)C(=O)N1)N1Cc2c(C(=O)NCc3ccc(Cl)cc3)nn(C)c2C1 (centres unmarked) [Compound 86],0.0182 µM,0.037 µM,,,,2.36 µM,1.71 µM,0.616 µM
C[C@@H]1c2c(C(=O)NCc3ccc(Cl)cc3)nn(C)c2CN1C[C@H]1CCC(=O)N1 [Compound 126],0.522 µM,0.159 µM,,,,1.96 µM,1.19 µM,6.11 µM
O=C1CC[C@@H](CN2Cc3c(C(=O)NCc4ccc(Cl)cc4)nn(C(F)F)c3C2)N1 [Compound 46],0.0697 µM,0.023 µM,,,,0.53 µM,0.211 µM,0.706 µM
CC(C1CC(F)C(=O)N1)N1Cc2c(C(=O)NCc3ccc(Cl)cc3)nn(C)c2C1 (centres unmarked) [Compound 76],0.03 µM,0.0361 µM,,,,1.59 µM,1.41 µM,3.61 µM
CCC1(Cn2nc(C(=O)NCc3ccc(Cl)cc3)c3c2CN(C[C@H]2CCC(=O)N2)C3)COC1 [Compound 40],0.0891 µM,0.0908 µM,34.5 µM,23.3 µM,5.3 µM,,,

# From patent publication US20240059693A1, “FUSED BICYCLIC PYRAZOLE DERIVATIVES AND METHODS OF USE THEREOF FOR THE TREATMENT OF HERPESVIRUSES” (Merck Sharp & Dohme LLC, priority 2020, published 2024)
